{
  "source": "patent US7527942B2",
  "about": "“Transcription amplification system for molecular imaging” (The Regents of the University of California, priority 2002, dated 2009)",
  "key": {"[1]": {"conditions": "human subjects; cited from earlier work"}, "LNCaP cells": {"test_system": "LNCaP cells", "test": "Co-transfection luciferase assay with 10 nM R1881 (Example 2)", "assay_type": "cell-based, human", "conditions": "charcoal-stripped serum", "experimental": "We performed transient transfections 24 hours later using Tfx-50 (Promega) with a lipid:DNA ratio of 4:1. Each transfection mixture contained 0.5 μg of the effector and reporter plasmids or reporter plasmid alone with pGL3B carrier DNA. Methylenetrienolone (R1881; NEN Life Science Products, Boston, Mass.) was added to the medium at a concentration of 10 nM/well one hour following transfection, and the cells were incubated for 48 h. The cells were harvested and lysed using the passive lysis buffer provided in the assay kit for measuring FL activities (Dual-Reporter Luciferase Assay System, Promega)."}},
  "data": [
    {"compound": "Nc1nc(=O)c2ncn(CCC(CO)C[18F])c2[nH]1", "note": "(stereo not drawn) [[^18F]FHBG, 9-(4-[18F]-fluoro-3-hydroxymethylbutyl)guanine]", "values": [
      {"measurement": "blood-brain-barrier penetration", "setting": "[1]", "result": "does not significantly cross the blood-brain-barrier"}
    ]},
    {"compound": "O=c1[nH]c(=O)n([C@@H]2O[C@H](CO)[C@@H](O)[C@@H]2F)cc1[125I]", "note": "[[^124I]FIAU, 2′-fluoro-2′-deoxy-1-β-D-arabinofuranosyl-5-iodo-uracil]", "values": [
      {"measurement": "blood-brain-barrier penetration", "setting": "[1]", "result": "cannot penetrate the blood brain barrier"}
    ]},
    {"compound": "CC(O)(CS(=O)(=O)c1ccc(F)cc1)C(=O)Nc1ccc(C#N)c(C(F)(F)F)c1", "note": "(stereo not drawn) [casodex, reference compound]", "values": [
      {"measurement": "basal activity of the PSA enhancer constructs", "setting": "LNCaP cells", "result": "further reduced"}
    ]}
  ]
}
